According to US4401660A, “Ester derivatives of 5-O-mycaminosyl tylonolide and method of using same” (Eli Lilly and Company, priority 1981, dated 1983):

Experiments:
Assay type in all cases: cell-based
Parameters in all cases: unit not given here
[1] = test system: Pasteurella haemolytica 22C; assay: MIC, broth-dilution microtiter test (Table III)
Method: (§1) The MIC's in Table II were determined by standard agar-dilution assays. The MIC's in Table III were obtained using a conventional broth-dilution microtiter test.

[2] = test system: Pasteurella haemolytica 23C; assay: MIC, broth-dilution microtiter test (Table III)
Method: as §1

[3] = test system: Pasteurella multocida 40G; assay: MIC, broth-dilution microtiter test (Table III)
Method: as §1

[4] = test system: Mycoplasma synoviae; assay: MIC, broth-dilution microtiter test (Table III)
Method: as §1

[5] = test system: Pasteurella multocida 68C; assay: MIC, broth-dilution microtiter test (Table III)
Method: as §1

[6] = test system: Mycoplasma gallisepticum; assay: MIC, broth-dilution microtiter test (Table III)
Method: as §1

[7] = test system: Staphylococcus aureus; assay: MIC, broth-dilution microtiter test (Table III)
Method: as §1

[8] = test system: Pasteurella multocida 17E; assay: MIC, broth-dilution microtiter test (Table III); details: bovine isolate
Method: as §1

[9] = test system: Pasteurella haemolytica 41D; assay: MIC, broth-dilution microtiter test (Table III)
Method: as §1

[10] = test system: Pasteurella multocida 60A; assay: MIC, broth-dilution microtiter test (Table III); details: avian isolate
Method: as §1

[11] = test system: Mycoplasma hyorhinis; assay: MIC, broth-dilution microtiter test (Table III)
Method: as §1

[12] = test system: Pasteurella multocida 22A; assay: MIC, broth-dilution microtiter test (Table III)
Method: as §1

[13] = test system: Streptococcus sp. 80; assay: MIC, broth-dilution microtiter test (Table III)
Method: as §1

[14] = test system: Haemophilus influenzae R252; assay: MIC, standard agar-dilution assay (Table II); details: Haemophilus influenzae R252, ampicillin-resistant strain
Method: as §1

[15] = test system: Haemophilus influenzae Holt; assay: MIC, standard agar-dilution assay (Table II); details: ampicillin-sensitive strain
Method: as §1

[16] = test system: Streptococcus pneumoniae Park I; assay: MIC, standard agar-dilution assay (Table II)
Method: as §1

[17] = test system: Staphylococcus epidermidis EPI1; assay: MIC, standard agar-dilution assay (Table II)
Method: as §1

[18] = test system: Staphylococcus aureus X1.1; assay: MIC, standard agar-dilution assay (Table II)
Method: as §1

[19] = test system: Staphylococcus aureus S13E; assay: MIC, standard agar-dilution assay (Table II)
Method: as §1

[20] = test system: Streptococcus Group D 9960; assay: MIC, standard agar-dilution assay (Table II)
Method: as §1

[21] = test system: Streptococcus pyogenes C203; assay: MIC, standard agar-dilution assay (Table II)
Method: as §1

[22] = test system: Staphylococcus epidermidis EPI2; assay: MIC, standard agar-dilution assay (Table II)
Method: as §1

[23] = test system: Streptococcus Group D X66; assay: MIC, standard agar-dilution assay (Table II)
Method: as §1

[24] = test system: Staphylococcus aureus V41; assay: MIC, standard agar-dilution assay (Table II); details: Staphylococcus aureus V41, penicillin-resistant strain
Method: as §1

[25] = test system: Staphylococcus aureus X400; assay: MIC, standard agar-dilution assay (Table II); details: Staphylococcus aureus X400, methicillin-resistant strain
Method: as §1

| SMILES | minimal inhibitory concentration (MIC) [1] | minimal inhibitory concentration (MIC) [2] | minimal inhibitory concentration (MIC) [3] | minimal inhibitory concentration (MIC) [4] | minimal inhibitory concentration (MIC) [5] | minimal inhibitory concentration (MIC) [6] | minimal inhibitory concentration (MIC) [7] | minimal inhibitory concentration (MIC) [8] | minimal inhibitory concentration (MIC) [9] | minimal inhibitory concentration (MIC) [10] | minimal inhibitory concentration (MIC) [11] | minimal inhibitory concentration (MIC) [12] | minimal inhibitory concentration (MIC) [13] | minimal inhibitory concentration (MIC) [14] | minimal inhibitory concentration (MIC) [15] | minimal inhibitory concentration (MIC) [16] | minimal inhibitory concentration (MIC) [17] | minimal inhibitory concentration (MIC) [18] | minimal inhibitory concentration (MIC) [19] | minimal inhibitory concentration (MIC) [20] | further results |
| --- | --- | --- | --- | --- | --- | --- | --- | --- | --- | --- | --- | --- | --- | --- | --- | --- | --- | --- | --- | --- | --- |
| CCC1OC(=O)CC(O)C(C)C(OC2OC(C)C(O)C(N(C)C)C2OC(C)=O)C(CC=O)CC(C)C(=O)C=CC(C)=CC1COC(=O)Cc1cc(OC)ccc1OC (stereo not drawn) [Compound 62] | 6.25 | 6.25 | 3.12 | < 0.05 | 6.25 | < 0.05 | 0.78 | 3.12 | 3.12 | 12.5 | 0.78 | 3.12 | 0.195 | 2 | 1 | 0.03 | 0.125 | 0.25 | 0.125 | 0.125 | minimal inhibitory concentration (MIC) [21]: 0.06; minimal inhibitory concentration (MIC) [22]: 0.25; minimal inhibitory concentration (MIC) [23]: 0.125; minimal inhibitory concentration (MIC) [24]: 0.25; minimal inhibitory concentration (MIC) [25]: 0.25 |
| CCC1OC(=O)CC(O)C(C)C(OC2OC(C)C(O)C(N(C)C)C2O)C(CC=O)CC(C)C(=O)C=CC(C)=CC1COC(=O)CCCCc1ccccc1 (stereo not drawn) [Compound 61] | 12.5 | 12.5 | 6.25 | 1.56 | 6.25 | 0.78 | 1.56 | 6.25 | 6.25 | 3.12 | 6.25 | 6.25 | 1.56 | 2 | 2 | 0.06 | 0.25 | 0.25 | 0.25 | 0.25 | minimal inhibitory concentration (MIC) [21]: 0.25; minimal inhibitory concentration (MIC) [22]: 0.25; minimal inhibitory concentration (MIC) [23]: 0.25; minimal inhibitory concentration (MIC) [24]: 0.25; minimal inhibitory concentration (MIC) [25]: 0.25 |
| CCC1OC(=O)CC(O)C(C)C(OC2OC(C)C(OC(C)=O)C(N(C)C)C2OC(C)=O)C(CC=O)CC(C)C(=O)C=CC(C)=CC1COC(=O)C(Cl)Cl (stereo not drawn) [Compound 66, 2',4'-Di-O-acetyl-23-O-dichloroacetyl-OMT] | 25 | 12.5 | 3.12 | 1.56 | 3.12 | 1.56 | 3.12 | 3.12 | 25 | 6.25 | 6.25 | 3.12 | < 0.78 | 1 | 2 | 0.125 | 1 | 1 | 1 | 2 | minimal inhibitory concentration (MIC) [21]: 0.25; minimal inhibitory concentration (MIC) [22]: 2; minimal inhibitory concentration (MIC) [23]: 1; minimal inhibitory concentration (MIC) [24]: 2; minimal inhibitory concentration (MIC) [25]: 2 |
| CCC1OC(=O)CC(O)C(C)C(OC2OC(C)C(O)C(N(C)C)C2OC(C)=O)C(CC=O)CC(C)C(=O)C=CC(C)=CC1COC(=O)CCCCc1ccccc1 (stereo not drawn) [Compound 60] | 6.25 | 6.25 | 12.5 | 0.78 | 1.56 | < 0.05 | 0.39 | 3.12 | 6.25 | 3.12 | 6.25 | 3.12 | 0.39 | 2 | 2 | 0.125 | 0.25 | 0.25 | 0.25 | 0.25 | minimal inhibitory concentration (MIC) [21]: 0.25; minimal inhibitory concentration (MIC) [22]: 0.5; minimal inhibitory concentration (MIC) [23]: 0.25; minimal inhibitory concentration (MIC) [24]: 0.25; minimal inhibitory concentration (MIC) [25]: 0.25 |
| CCC1OC(=O)CC(O)C(C)C(OC2OC(C)C(O)C(N(C)C)C2O)C(CC=O)CC(C)C(=O)C=CC(C)=CC1COC(=O)c1ccc2ccccc2c1 (stereo not drawn) [Compound 59] | 12.5 | 12.5 | 3.12 | 1.56 | 3.12 | 0.39 | 0.78 | 3.12 | 12.5 | 3.12 | 6.25 | 12.5 | 0.39 | 2 | 4 | 0.125 | 0.5 | 0.5 | 0.5 | 0.5 | minimal inhibitory concentration (MIC) [21]: 0.5; minimal inhibitory concentration (MIC) [22]: 0.5; minimal inhibitory concentration (MIC) [23]: 0.5; minimal inhibitory concentration (MIC) [24]: 0.5; minimal inhibitory concentration (MIC) [25]: 0.5 |
| CCC1OC(=O)CC(O)C(C)C(OC2OC(C)C(O)C(N(C)C)C2O)C(CC=O)CC(C)C(=O)C=CC(C)=CC1COC(=O)C12CC3CC(CC(C3)C1)C2 (stereo not drawn) [Compound 70] | 25 | 25 | 12.5 | 0.39 | 12.5 | 1.56 | 6.25 | 12.5 | 25 | 25 | 3.12 | 12.5 | 1.56 | 16 | 8 | 0.5 | 1 | 1 | 1 | 2 | minimal inhibitory concentration (MIC) [21]: 1; minimal inhibitory concentration (MIC) [22]: 1; minimal inhibitory concentration (MIC) [23]: 2; minimal inhibitory concentration (MIC) [24]: 1; minimal inhibitory concentration (MIC) [25]: 1 |
